# Paper PMC4672351, “Drug-Drug Interaction Potentials of Tyrosine Kinase Inhibitors via Inhibition of UDP-Glucuronosyltransferases” (Scientific Reports, 2015)
# Tests used:
# [1] = biological target: T1, UGT2B4 (Homo sapiens, UniProt P06133); test: Inhibition of 4-MU glucuronidation by recombinant UGT2B4; assay type: in vitro ADME; conditions: recombinant UGT2B4, pH 7.4, probe 4-MU, 100 μM inhibitor, 4-MU substrate, read-out: Remaining activities (%) of UGT2B4
# T1 construct: purchased BD Gentest (Woburn, MA); host or cells: baculovirus-infected insect cells
# T1 sequence (P06133 24-528): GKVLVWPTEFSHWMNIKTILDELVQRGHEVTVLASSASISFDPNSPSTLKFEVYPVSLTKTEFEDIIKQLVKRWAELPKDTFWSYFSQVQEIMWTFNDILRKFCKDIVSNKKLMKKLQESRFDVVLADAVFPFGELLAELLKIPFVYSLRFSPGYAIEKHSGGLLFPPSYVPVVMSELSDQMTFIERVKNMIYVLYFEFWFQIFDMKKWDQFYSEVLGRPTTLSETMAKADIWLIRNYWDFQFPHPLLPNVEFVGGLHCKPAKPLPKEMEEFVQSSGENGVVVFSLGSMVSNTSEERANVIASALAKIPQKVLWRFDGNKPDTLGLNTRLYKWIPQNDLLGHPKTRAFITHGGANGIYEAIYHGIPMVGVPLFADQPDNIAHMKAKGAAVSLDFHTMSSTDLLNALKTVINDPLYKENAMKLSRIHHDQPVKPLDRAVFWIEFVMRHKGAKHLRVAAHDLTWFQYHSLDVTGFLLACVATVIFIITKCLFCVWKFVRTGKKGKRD
# [2] = Estimation of in vivo TKI concentrations after repeated oral administration; parameters: species or system human; conditions: calculated from literature PK parameters
# [3] = biological target: T2, UGT1A9 (Homo sapiens, UniProt O60656); test: in vitro; conditions: recombinant UGT1A9, pH 7.4, probe 4-MU
# T2 sequence (O60656 26-530): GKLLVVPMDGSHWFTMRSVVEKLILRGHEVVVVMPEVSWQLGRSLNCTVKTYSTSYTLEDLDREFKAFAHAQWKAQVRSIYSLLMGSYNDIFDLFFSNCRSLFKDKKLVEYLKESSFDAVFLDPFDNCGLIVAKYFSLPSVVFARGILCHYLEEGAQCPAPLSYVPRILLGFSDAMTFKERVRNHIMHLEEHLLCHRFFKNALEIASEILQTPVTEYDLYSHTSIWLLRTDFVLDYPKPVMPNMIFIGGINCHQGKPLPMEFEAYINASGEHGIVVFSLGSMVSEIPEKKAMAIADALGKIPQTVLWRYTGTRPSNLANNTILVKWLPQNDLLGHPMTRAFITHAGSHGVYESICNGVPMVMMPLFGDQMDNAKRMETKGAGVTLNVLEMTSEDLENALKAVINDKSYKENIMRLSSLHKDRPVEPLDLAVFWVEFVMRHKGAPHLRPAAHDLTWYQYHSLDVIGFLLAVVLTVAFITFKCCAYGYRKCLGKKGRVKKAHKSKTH
# [4] = biological target: T3, UGT1A3 (Homo sapiens, UniProt P35503); test: Inhibition of 4-MU glucuronidation by recombinant UGT1A3; conditions: recombinant UGT1A3, pH 7.4, probe 4-MU
# T3 sequence (P35503 29-534): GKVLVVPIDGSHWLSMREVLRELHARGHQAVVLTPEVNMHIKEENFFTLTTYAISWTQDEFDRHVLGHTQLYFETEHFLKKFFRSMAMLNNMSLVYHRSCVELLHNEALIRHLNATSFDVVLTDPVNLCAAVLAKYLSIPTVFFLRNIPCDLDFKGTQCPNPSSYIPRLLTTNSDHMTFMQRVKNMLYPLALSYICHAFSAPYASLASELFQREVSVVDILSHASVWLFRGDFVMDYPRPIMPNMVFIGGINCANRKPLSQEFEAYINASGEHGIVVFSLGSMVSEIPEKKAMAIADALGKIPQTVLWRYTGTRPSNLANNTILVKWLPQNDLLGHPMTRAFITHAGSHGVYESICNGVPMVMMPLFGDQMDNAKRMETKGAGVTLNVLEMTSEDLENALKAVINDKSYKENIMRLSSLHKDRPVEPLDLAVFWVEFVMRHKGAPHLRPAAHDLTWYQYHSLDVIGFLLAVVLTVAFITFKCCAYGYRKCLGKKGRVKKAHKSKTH
# [5] = biological target: T4, UGT1A10 (Homo sapiens, UniProt Q9HAW8); test: Inhibition of 4-MU glucuronidation by recombinant UGT1A10; conditions: recombinant UGT1A10, pH 7.4, probe 4-MU
# T4 sequence (Q9HAW8 26-530): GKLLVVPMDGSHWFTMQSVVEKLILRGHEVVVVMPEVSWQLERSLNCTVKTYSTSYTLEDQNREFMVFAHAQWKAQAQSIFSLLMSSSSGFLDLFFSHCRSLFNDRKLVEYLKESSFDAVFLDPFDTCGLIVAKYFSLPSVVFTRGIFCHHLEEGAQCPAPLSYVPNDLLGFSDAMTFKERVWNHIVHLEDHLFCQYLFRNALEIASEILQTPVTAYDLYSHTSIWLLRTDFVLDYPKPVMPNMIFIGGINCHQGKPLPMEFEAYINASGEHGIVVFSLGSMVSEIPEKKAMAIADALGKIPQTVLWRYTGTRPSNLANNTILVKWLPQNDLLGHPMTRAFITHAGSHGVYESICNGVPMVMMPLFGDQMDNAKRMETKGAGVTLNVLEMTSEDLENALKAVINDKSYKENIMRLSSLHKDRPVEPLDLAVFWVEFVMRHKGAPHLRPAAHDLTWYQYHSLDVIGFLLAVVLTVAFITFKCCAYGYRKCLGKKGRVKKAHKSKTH
# [6] = biological target: T5, UGT2B17 (Homo sapiens, UniProt O75795); test: Inhibition of 4-MU glucuronidation by recombinant UGT2B17; conditions: recombinant UGT2B17, pH 7.4, probe 4-MU
# T5 sequence (O75795 24-530): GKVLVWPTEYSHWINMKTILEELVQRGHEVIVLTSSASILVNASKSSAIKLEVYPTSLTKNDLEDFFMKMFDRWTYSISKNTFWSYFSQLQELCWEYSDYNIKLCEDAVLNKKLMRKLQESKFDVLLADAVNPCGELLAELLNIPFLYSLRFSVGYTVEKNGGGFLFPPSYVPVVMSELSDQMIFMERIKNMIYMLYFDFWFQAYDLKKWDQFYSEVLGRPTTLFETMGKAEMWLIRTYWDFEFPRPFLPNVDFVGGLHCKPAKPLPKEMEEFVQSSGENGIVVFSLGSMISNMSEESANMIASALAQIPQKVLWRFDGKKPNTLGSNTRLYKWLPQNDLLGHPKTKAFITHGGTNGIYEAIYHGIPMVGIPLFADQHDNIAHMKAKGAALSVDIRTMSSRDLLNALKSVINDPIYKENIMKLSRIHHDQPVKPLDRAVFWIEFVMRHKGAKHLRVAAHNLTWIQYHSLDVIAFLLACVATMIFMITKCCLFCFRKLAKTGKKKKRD
smiles,measurement,setting,value
"CNC(=O)c1ccccc1Sc1ccc2c(/C=C/c3ccccn3)n[nH]c2c1 [Axitinib, axitinib]","activity at 120 min, 100 µM",[1],42.1 ± 1.6%
same,Calculated Concentrations Iav (average systemic plasma concentration),[2],0.024 µM
same,"Calculated Concentrations Iin,u (maximum unbound hepatic input concentration)",[2],0.00086 µM
same,"Calculated Concentrations Imax,u (maximum unbound systemic plasma concentration)",[2],0.00067 µM
same,"activity at 30 min, 100 µM",[3],44.8 ± 0.2%
same,"activity at 75 min, 100 µM",[4],47.8 ± 12.8%
same,"activity at 120 min, 100 µM",[5],55.5 ± 2.7%
same,"activity at 120 min, 100 µM",[6],55.9 ± 0.3%
"CS(=O)(=O)CCNCc1ccc(-c2ccc3ncnc(Nc4ccc(OCc5cccc(F)c5)c(Cl)c4)c3c2)o1 [Lapatinib, lapatinib]","activity at 120 min, 100 µM",[1],105.1 ± 0.2%
same,Calculated Concentrations Iav (average systemic plasma concentration),[2],0.79 µM
same,"Calculated Concentrations Iin,u (maximum unbound hepatic input concentration)",[2],0.12 µM
same,"Calculated Concentrations Imax,u (maximum unbound systemic plasma concentration)",[2],0.011 µM
same,"activity at 30 min, 100 µM",[3],51.1 ± 7.9%
same,"activity at 75 min, 100 µM",[4],96.5 ± 7.5%
same,"activity at 120 min, 100 µM",[5],73.6 ± 4.8%
same,"activity at 120 min, 100 µM",[6],94.8 ± 5.7%
"COc1cc2c(Nc3ccc(Br)cc3F)ncnc2cc1OCC1CCN(C)CC1 [Vandetanib, vandetanib]","activity at 120 min, 100 µM",[1],80.8 ± 6.6%
same,Calculated Concentrations Iav (average systemic plasma concentration),[2],1.99 µM
same,"Calculated Concentrations Iin,u (maximum unbound hepatic input concentration)",[2],0.23 µM
same,"Calculated Concentrations Imax,u (maximum unbound systemic plasma concentration)",[2],0.12 µM
same,"activity at 30 min, 100 µM",[3],14.1 ± 4.7%
same,"activity at 75 min, 100 µM",[4],104 ± 2.1%
same,"activity at 120 min, 100 µM",[5],49 ± 0.4%
same,"activity at 120 min, 100 µM",[6],69.7 ± 3.1%
